{"source": "patent US20020004046A1", "about": "“Combination therapy of respiratory diseases using antibodies” (priority 2000, published 2002)", "origin": "cited, not measured here", "key": {"[1]": {"conditions": "compared with untreated patients"}}, "data": [{"smiles": "NC(=O)c1ncn([C@@H]2O[C@H](CO)[C@@H](O)[C@H]2O)n1", "note": "[ribavirin]", "values": [{"measurement": "level of secondary infection following cessation of treatment", "setting": "[1]", "result": "significantly higher"}, {"measurement": "bioavailability", "setting": "given orally", "result": "about 45%"}, {"measurement": "time of peak concentrations in plasma", "setting": "in vivo, po", "result": "1 to 2", "unit": "h"}]}]}
